Laboratory results taken from the supplement of paper PMC5579334.
± gives the standard deviation of the averaged measurements.

Legend:
[1] = tested on: HSC2 (primary human Schwann cells); assay: drug sensitivity score (DSS, CellTox-Green cytotoxicity, 72 h) (DSS (dimensionless)); higher = more cytotoxic; extreme values may be limits of the assay
Summary of the method: (§1)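 For 72 h at 37 °C, MPNST cell lines and primary human Schwann cells were exposed in 384-well plates to five 10-fold compound dilutions. CellTox-Green, added before seeding at a final 1:1000 dilution, gave fluorescence from DNA released by disrupted cells. Signals were scaled to vehicle and positive-control wells, cultures failing plate quality control were left out, and four-parameter logistic fits were applied. Relative IC50 and drug sensitivity score were derived from the fits, with IC50 censored at the top concentration.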

STS26T [2] = assay: as above
Summary of the method: as §1

ST8814 [3] = assay: as above
Summary of the method: as §1

[4] = tested on: HSC1 (primary human Schwann cells); assay: as above
Summary of the method: as §1

S1507-2 [5] = assay: as above
Summary of the method: as §1

[6] = tested on: HSC2 (primary human Schwann cells); assay: drug sensitivity score (DSS, CellTiter-Glo viability, 72 h) (DSS (dimensionless)); higher = more sensitive; extreme values may be limits of the assay
Summary of the method: (§2)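 MPNST cell lines and primary human Schwann cells were seeded at 750–1000 cells per well into 384-well plates preprinted with each compound at five concentrations in 10-fold steps, then incubated 72 h at 37 °C, 5% CO2. CellTiter-Glo ATP luminescence gave viability, scaled between vehicle and positive-control wells, with duplicates averaged where present. Curves were fitted with a four-parameter logistic model. Percent inhibition refers to the top concentration, while drug sensitivity score and relative IC50, censored at the top concentration, come from these fits.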

STS26T [7] = assay: as above
Summary of the method: as §2

ST8814 [8] = assay: as above
Summary of the method: as §2

[9] = tested on: HSC1 (primary human Schwann cells); assay: as above
Summary of the method: as §2

S462 [10] = assay: as above
Summary of the method: as §2

S1507-2 [11] = assay: as above
Summary of the method: as §2

[12] = tested on: HSC2 (primary human Schwann cells); assay: % inhibition of CellTiter-Glo viability at highest tested concentration (72 h), relative to DMSO and benzethonium chloride controls; higher = more inhibition
Summary of the method: as §2

STS26T [13] = assay: as above
Summary of the method: as §2

ST8814 [14] = assay: as above
Summary of the method: as §2

[15] = tested on: HSC1 (primary human Schwann cells); assay: as above
Summary of the method: as §2

S462 [16] = assay: as above
Summary of the method: as §2

S1507-2 [17] = assay: as above
Summary of the method: as §2

YST-1 = assay: drug sensitivity score (DSS, CellTiter-Glo viability, 72 h) (DSS (dimensionless)); higher = more sensitive; extreme values may be limits of the assay
Summary of the method: as §2

HS-Sch-2 [18] = assay: as above
Summary of the method: as §2

HS-PSS [19] = assay: as above
Summary of the method: as §2

HS-PSS [20] = assay: drug sensitivity score (DSS, CellTox-Green cytotoxicity, 72 h) (DSS (dimensionless)); higher = more cytotoxic; extreme values may be limits of the assay
Summary of the method: as §1

HS-Sch-2 [21] = assay: % inhibition of CellTiter-Glo viability at highest tested concentration (72 h), relative to DMSO and benzethonium chloride controls; higher = more inhibition
Summary of the method: as §2

HS-PSS [22] = assay: as above
Summary of the method: as §2

Compound | drug sensitivity score [1] | drug sensitivity score (STS26T [2]) | drug sensitivity score (ST8814 [3]) | drug sensitivity score [4] | drug sensitivity score (S1507-2 [5]) | drug sensitivity score [6] | drug sensitivity score (STS26T [7]) | drug sensitivity score (ST8814 [8]) | drug sensitivity score [9] | drug sensitivity score (S462 [10]) | drug sensitivity score (S1507-2 [11]) | % inhibition [12] | % inhibition (STS26T [13]) | % inhibition (ST8814 [14]) | % inhibition [15] | % inhibition (S462 [16]) | % inhibition (S1507-2 [17]) | drug sensitivity score (YST-1) | drug sensitivity score (HS-Sch-2 [18]) | drug sensitivity score (HS-PSS [19]) | drug sensitivity score (HS-PSS [20]) | % inhibition (HS-Sch-2 [21]) | % inhibition (HS-PSS [22])
N[C@@H](CSC(c1ccccc1)(c1ccccc1)c1ccccc1)C(=O)O [S-trityl-L-cysteine] (max concentration tested 40000 nM) | 0 | 0 | 0 | 0 | 0 | 0 | 0.0666 | 0 | 0.233 | 0.0379 ± 0.054 | 0 | -1.33% | 13% | 7.25% | 14.8% | 8.17 ± 9.1% | 3.83 ± 4.3% | – | – | – | – | – | –
CC1=C2C[C@H]3[C@@H](CC=C4C[C@@H](O)CC[C@@]43C)[C@@H]2CC[C@]12O[C@@H]1C[C@H](C)CN[C@H]1[C@H]2C [Cyclopamine] (max concentration tested 10000 nM) | 0 | 0 | 0 | 0 | 0.06 ± 0.085 | 0 | 0 | 0 | 0 | 0 | 0.114 ± 0.16 | 7.88% | 4.33% | -4.3% | 9.19% | -1.34 ± 2.9% | 11.5 ± 3% | – | – | – | – | – | –
Cc1sc2c(c1C)C(c1ccc(Cl)cc1)=N[C@@H](CC(=O)OC(C)(C)C)c1nnc(C)n1-2 [(+)JQ1] (max concentration tested 10000 nM) | 0 | 0 | 5.02 | 0 | 12.7 ± 1.7 | 10.4 | 8.02 | 14.8 | 10.2 | 11.3 ± 0.7 | 18.5 ± 0.8 | 66% | 43.2% | 75.6% | 61.1% | 69.3 ± 1.7% | 86.1 ± 1% | – | – | – | – | – | –
CC(=O)O[C@]1(C(C)=O)CC[C@H]2[C@@H]3C=C(C)C4=CC(=O)CC[C@]4(C)[C@H]3CC[C@@]21C [Megestrol] (max concentration tested 10000 nM) | 0 | 0 | 0 | 0 | 0 | 0 | 0 | 0 | 0 | 0 | 0 | 8.15% | 1.5% | 4.75% | 9.41% | 2.52 ± 6.2% | -2.04 ± 5.3% | – | – | – | – | – | –
CC(C)NC[C@@H](C(=O)N1CCN(c2ncnc3c2[C@H](C)C[C@H]3O)CC1)c1ccc(Cl)cc1 [GDC-0068] (max concentration tested 10000 nM) | 0 | 0 | 0 | 0 | 0 | 0 | 5.77 | 0.785 | 0.374 | 0.195 ± 0.28 | 2.03 ± 1 | 6.99% | 44% | 17.1% | 21.6% | 13.5 ± 7.9% | 31.5 ± 4.2% | – | – | – | – | – | –
Nc1cccc2c1CN(C1CCC(=O)NC1=O)C2=O (stereo unspecified) [Lenalidomide] (max concentration tested 10000 nM) | 2.65 | 0 | 0 | 0 | 0 | 0.0019 | 0 | 0 | 0.47 | 0 | 1.35 ± 1.9 | 11% | 0.527% | 3.01% | 9.28% | 2.04 ± 9.8% | 10.8 ± 9.4% | – | – | – | – | – | –
Cn1nnc2c(C(N)=O)ncn2c1=O [Temozolomide] (max concentration tested 10000 nM) | 0 | 0 | 0 | 0 | 0 | 0 | 0 | 0.0241 | 0 | 0 | 0.17 ± 0.24 | 2.06% | 8.32% | 11.9% | 8.86% | 2.61 ± 0.65% | 9.8 ± 9.4% | – | – | – | – | – | –
Cn1cc(C[C@@H](N)C(=O)O)c2ccccc21 [1-methyl-D-tryptophan aq] (max concentration tested 5000 nM) | 0.888 | 0.0551 | 0 | 0 | 0.475 ± 0.58 | 0 | 0 | 0 | 0 | 0 | 0 | 1.85% | -5.75% | -2.14% | 4.52% | 0.824 ± 5.1% | 0.132 ± 6.3% | – | – | – | – | – | –
CCCCCCCCCCCCCCCCCCOP(=O)([O-])OC1CC[N+](C)(C)CC1 [Perifosine aq/PBS] (max concentration tested 2500 nM) | 0 | 0.96 | 0.404 | 0 | 0 | 0 | 1.96 | 1.66 | 0 | 0.0036 ± 0.0051 | 0 | 7.97% | 32.7% | 23.6% | 9.06% | 9.85 ± 1.6% | 1.67 ± 4.5% | – | – | – | – | – | –
CC1(C)CCC(CN2CCN(c3ccc(C(=O)NS(=O)(=O)c4ccc(NCC5CCOCC5)c([N+](=O)[O-])c4)c(Oc4cnc5[nH]ccc5c4)c3)CC2)=C(c2ccc(Cl)cc2)C1 [ABT-199] (max concentration tested 10000 nM) | 0 | 0 | 0.467 | 0 | 0.226 ± 0.32 | 0.781 | 0 | 0.111 | 0.0759 | 0.138 ± 0.2 | 0 | 23.8% | 3.69% | 15.5% | 14.4% | 7.02 ± 15% | 8.98 ± 1.1% | – | – | – | – | – | –
C[C@H]1C=C2C(=O)O[C@H]3CC[C@@H](C1)[C@@]23O [Galiellalactone] (max concentration tested 50000 nM) | 0 | 2.26 | 0 | 0.367 | 2.69 ± 1.4 | 7.95 | 9.38 | 7.08 | 11.2 | 9.23 ± 1.4 | 7.75 ± 0.57 | 98.5% | 101% | 88.9% | 97.6% | 100 ± 2.5% | 92.8 ± 14% | – | – | – | – | – | –
NC(=O)c1cccc2cn(-c3ccc(C4CCCNC4)cc3)nc12 (stereo unspecified) [MK-4827] (max concentration tested 10000 nM) | 0 | 0.673 | 4.56 | 0 | 0.763 ± 1.1 | 1.47 | 6.01 | 8.12 | 2.86 | 8.55 ± 0.22 | 5.09 ± 0.48 | 23.4% | 67.6% | 89.5% | 40% | 86.1 ± 3% | 57.5 ± 6.1% | – | – | – | – | – | –
N[C@@H](Cc1ccc(N(CCCl)CCCl)cc1)C(=O)O [Melphalan aq] (max concentration tested 12500 nM) | 0 | 0 | 0 | 0 | 0 | 0 | 0 | 0 | 0.445 | 0 | 0 | 6.78% | 2.1% | 3.22% | 18.7% | 5.6 ± 3% | 6.15 ± 8.2% | – | – | – | – | – | –
CCCCC/C=C/C=C1/C(=O)C=C[C@@H]1C/C=C\CCCC(=O)O [15D-PGJ2] (max concentration tested 800 nM) | 0 | 0 | 0 | 0 | 0 | 0 | 0 | 0 | 0 | 0 | 0.113 ± 0.16 | 0.683% | -0.85% | -9.15% | 2.13% | 0.683 ± 8.3% | 4.46 ± 11% | – | – | – | – | – | –
CCC(C)(C)C(=O)O[C@H]1C[C@@H](C)C=C2C=C[C@H](C)[C@H](CC[C@@H]3C[C@@H](O)CC(=O)O3)[C@H]21 [Simvastatin] (max concentration tested 10000 nM) | – | – | – | – | – | 9.94 | 0.448 | 0.23 | 8.22 | 2.409 ± 0.0062 | 0.00035 ± 0.00049 | – | – | – | – | – | – | 0 | 0 | 3.55 | – | – | –
Cc1ccc(C(=O)Nc2ccc(CN3CCN(C)CC3)c(C(F)(F)F)c2)cc1C#Cc1cnc2cccnn12 [Ponatinib] (max concentration tested 1000 nM) | – | – | – | – | – | 6.49 | 3.91 | 8.31 | 6.62 | 5.51 ± 0.34 | 6.1 ± 0.6 | – | – | – | – | – | – | 4.76 | 5.57 | 2.2 | – | – | –
CS(=O)(=O)N1CCN(Cc2cc3nc(-c4cccc5[nH]ncc45)nc(N4CCOCC4)c3s2)CC1 [Pictilisib] (max concentration tested 10000 nM) | 0 | 0 | 1.86 | 0 | 0.342 ± 0.48 | 7.76 | 13.3 | 9.07 | 7.89 | 6.98 ± 0.18 | 13.4 ± 2.3 | 83.3% | – | – | 78.7% | 68.53 ± 0.23% | – | 14.6 | 4.35 | 5.78 | 0 | 51% | 52.1%
